Results published in patent publication EP0551200A1, “Protein phosphatase inhibitors for use in therapy” (priority 1992, dated 1993).
Like-named read-outs stand apart in the source and are kept apart here.

Legend:
Egr-1 mRNA [1] = test: cells; type: cell-based, mouse
Procedure: (§1) 10 µg of RNA was applied to each lane and subjected to Northern blot analysis using an Egr-1 specific cDNA probe [1.6 kb Bgl II fragment (Sukhatme et al, Cell 53, 37-48, 1988)]. The same blots were rehybridized with actin or GADPH cDNA for normalizing the amount of RNA loaded. The blots were dried and autoradiographed. • (A). Time course of okadaic acid-induced Egr-1 and c-jun messages in primary human fibroblasts. Quiescent human fibroblasts were induced with 1 µM of okadaic acid for the time periods indicated. […] Time course of okadaic acid-induced Egr-1 message in Balb/c 3T3 cells. Quiescent Balb/c 3T3 cells were induced with okadaic acid (0.5µM) for the times indicated. • (C). Concentration dependent induction of Egr-1 message by okadaic acid in Balb/c 3T3 cells. Quiescent Balb/c 3T3 cells were induced with the indicated concentrations of okadaic acid for 1 h. As controls, different concentrations of DMSO were included. These corresponded to the amounts present in 0.25 µM okadaic acid (0.025% dimethyl sulphoxide (DMSO)) 0.5 µM okadaic acid (0.05% DMSO) and 1 µM okadaic acid (0.1%). • (D). Concentration dependent and time course induction of Egr-1 message by calyculin A. Quiescent Balb/c 3T3 cells were induced with different concentrations of calyculin A for 1 h. Northern analysis of this dose-dependent induction by calyculin A is shown on the left panel of the figure. […] Northern analysis of this time course induction by calyculin A is shown in the right panel of the figure. The same blot was rehybridized with pCMV-fos (Curran et al, Oncogene 2, 79-84, 1987) and pCMV-jun (Rauscher et al, 1988) shown in the middle panel. The blot was dried and autoradiographed.
(§2) Quiescent primary human fibroblasts were incubated with okadaic acid (OA) or TPA for 1 or 3 h. The concentrations of OA and TPA were 0.5 µM and 120 ng/ml, respectively. The concentration of 1-(5-isoquinolinylsulfonyl)-2-methylpiperazine dihydrochloride (H7) and N-(2-guanidinoethyl)-5-isoquinolinesulphonamide dihydrochloride (HA1004) used was 25 µM. The cells were pre-treated for 15 min with H7 or HA1004 before they were induced by OA or TPA for 1 or 3 h. Cells were harvested, RNA was isolated and subjected to Northern blot analysis. The blot was probed with Egr-1 or GADPH cDNA. • (B). As a positive control, primary human fibroblasts were treated with TPA (30 ng/ml) for 1 h (1st lane). The fibroblasts were also pre-treated with H7 (25 µM) or HA1004 (25 µM) for 15 min before treatment with TPA for 1 h (2nd and 3rd lanes respectively). […] The blot was probed with Egr-1 or actin cDNA. • (C). Quiescent Balb/c 3T3 cells were incubated with OA, TPA or dBt-cAMP for 1 h or pre-treated with H7 (25 µM) or HA1004 (25 µM) for 15 min and then incubated with each of the agonists for 1 h. Cells were harvested, RNA was isolated and subjected to Northern blot analysis. The concentration of each agonist used was as follows: lane a: 0.5 µM of OA, lane b: 100 ng/ml of TPA, lane c: 1 mM of dBt-cAMP, lane d: H7 plus OA (0.5 µM), lane e: H7 plus TPA (100 ng/ml), lane f: H7 plus dBt-cAMP (1 mM), lane g: HA1004 plus OA (0.5 µM), lane h: HA1004 plus TPA (100 ng.ml), lane i: HA1004 plus dBt-cAMP (1mM). The blot was probed with Egr-1 or GADPH cDNA.
Cell Cultures and Reagents. Human diploid foreskin fibroblasts were a gift from Dr J Vilcek (New York University, New York). The cells were grown in MEM supplemented with 10% fetal bovine serum (Hyclone, Logan, UT, US), Mouse Balb/c 3T3 cells were purchased from the American Type Culture Collection and grown in Dulbecco's MEM (DMEM) supplemented with 10% fetal bovine serum. Okadaic acid, calyculin A, H7, and HA1004 were purchased from Biomol Research Laboratories (Plymouth Meeting, PA, US). TPA, puromycin and dBt-cAMP were purchased from Sigma (St Louis, MO, US) 1 mM stock solutions of okadaic acid or calyculin A were solubilized in DMSO. [³²P]orthophosphate and other radioactive chemicals were purchased from Du Pont-New England Nuclear (Boston, MA). […]

Egr-1 mRNA [2] = test: Northern blot analysis of Egr-1 mRNA induction in quiescent primary human fibroblasts; type: cell-based
Procedure: Quiescent human fibroblasts were incubated with TNF (500 units/ml) (a) or OA (500 nM) (b) for 0, 30, 60 min after which total cellular RNA was extracted. Blots of RNA from these cells were hybridized to radiolabeled (10⁶ cpm/ml) Egr-1 cDNA probe. c, the blot in b was stripped and reprobed with c-jun cDNA. Note: Egr-1 mRNA probe was not completely stripped from the blot. The autoradiograph of the blot is presented. d, regularly maintained cells were incubated wither with no additions (control, 0 time) or with OA for 1, 3, 5, 7 h and Northern analysis was carried out with an IL-6 cDNA probe (ATCC, Rockville, MD, US).
as §1
Cells were incubated with either 0.5 µM of okadaic acid or 10 µg/ml of cycloheximide as well as with 0.5 µM of okadaic acid and 10 µg/ml of cycloheximide for 1.5, 3 or 6 h. Cells were harvested, RNA isolated and subjected to Northern blot analysis. The blot was probed with Egr-1 or actin cDNA.
as §2, with “The concentration of each agonist used was as follows: lane a: 0.5 µM of OA, lane b: 100 ng/ml of TPA, lane c: 1 mM of dBt-cAMP, lane d: H7 plus OA (0.5 µM), lane e: H7 plus TPA (100 ng/ml), lane f: H7 plus dBt-cAMP (1 mM), lane g: HA1004 plus OA (0.5 µM), lane h: HA1004 plus TPA (100 ng.ml), lane i: HA1004 plus dBt-cAMP (1mM). The blot was probed with Egr-1 or GADPH cDNA.” left out

c-fos and c-jun = test: Northern blot analysis of c-fos and c-jun in Balb/c 3T3 cells; type: cell-based, mouse; conditions: 15 nM time course
Procedure: 10 µg of RNA was applied to each lane and subjected to Northern blot analysis using an Egr-1 specific cDNA probe [1.6 kb Bgl II fragment (Sukhatme et al, Cell 53, 37-48, 1988)]. The same blots were rehybridized with actin or GADPH cDNA for normalizing the amount of RNA loaded. The blots were dried and autoradiographed. • (A). Time course of okadaic acid-induced Egr-1 and c-jun messages in primary human fibroblasts. Quiescent human fibroblasts were induced with 1 µM of okadaic acid for the time periods indicated. […] Time course of okadaic acid-induced Egr-1 message in Balb/c 3T3 cells. Quiescent Balb/c 3T3 cells were induced with okadaic acid (0.5µM) for the times indicated. • (C). Concentration dependent induction of Egr-1 message by okadaic acid in Balb/c 3T3 cells. Quiescent Balb/c 3T3 cells were induced with the indicated concentrations of okadaic acid for 1 h. As controls, different concentrations of DMSO were included. These corresponded to the amounts present in 0.25 µM okadaic acid (0.025% dimethyl sulphoxide (DMSO)) 0.5 µM okadaic acid (0.05% DMSO) and 1 µM okadaic acid (0.1%). • (D). […]
Cell Cultures and Reagents. […] The blots were autoradiographed and quantitated with the aid of the Visage 2000 Image System (BioImage Products, Ann Arbor, MI, US). […]

Egr-1 protein = type: cell-based; conditions: 2 h treatment, data not shown
Procedure: Quiescent human fibroblasts were stimulated with MEM containing 0.5 µM okadaic acid in the presence or absence of cycloheximide (10 µg/ml) for the times indicated in Fig. 11. […] Treatment of cells with cycloheximide enhanced the induction of Egr-1 mRNA by okadaic acid at 1.5 and 3 h (Fig. 11). Similarly puromycin, like cycloheximide, also "superinduces" the induction of the Egr-1 mRNA by okadaic acid (data not shown). […] However, in view that protein phosphatase 1 (PP1) and protein phosphatase 2A (PP2A) regulate enzymes associated with cellular protein synthesis (Cohen, Annu. Rev. Biochem. 58, 453-508, 1989) the effect of okadaic acid on protein synthesis in mouse and human fibroblasts was also measured. […] By then the Egr-1 mRNA message was already induced. A corollary to this is a comparison of the amount of ³⁵S-methionine labelled Egr-1 protein immunoprecipitated by R5232 antibodies from protein phosphatase inhibitor-treated and control cells. […] Thus, the induction of the Egr-1 gene by phosphatase inhibitors is unlikely to be mediated by their late inhibitory effects on cellular protein synthesis.

human fibroblasts = test: Early protein phosphorylation changes in 32P-labeled cells, two-dimensional gel electrophoresis with computerized densitometry; type: cell-based
Procedure: The cells were then subjected to analysis by high resolution two-dimensional gel electrophoresis combined with computerized imaging as previously described (Guy et al, J. Biol. Chem. 266, 14343-14352, 1991).
Radiolabeling of Cells and Cell Lysis - For labeling with [³²P]orthophosphate cells were plated onto 90 mm plastic tissue culture dishes and incubated for 3 days for the cells to become confluent. Immediately before labeling, the media was removed and the cells were washed twice with 5 ml of phosphate- and serum-free media (150 mM NaCl, 5 mM MgCl₂, 5 mM KCl, 1.6 mM CaCl₂, 0.5% glucose, 10 mM Tris, 0.1% bovine serum albumin, pH 7.4) before the addition of 1 mCi/ml of [³²P]orthophosphate in 3 ml of the same media to each plate. The plates were incubated at 37°C in a humidified CO₂ incubator for 2 h before the addition of the okadaic acid or other agonists at the concentrations and for the times indicated in the figures and table. The agonists were reconstituted in aqueous buffered solution or in dimethyl sulfoxide. […] At the completion of labeling the media was removed, and the cells were rapidly washed twice with 5 ml of ice-cold phosphate-buffered saline before being solubilised in 200 µl of cytosol extraction buffer (10mM Tris-HCl, 50 mM EDTA, 50 mM NaCl, 30 mM sodium pyrophosphate, 50 mM NaF, 100µM Na₃VO₄, 0.65% Nonidet P-40, 2 mM leupeptin, 2mM phenylmethylsulfonyl fluoride, pH 7.4). The lysate was collected and centrifuged for 5 min at 14,000 rpm. The pellet containing the nuclear fraction (including the cytoskeletal-membrane fractions) was separated from the cytosolic fraction. Both fractions were lyophilized.
Two-dimensional Gel Electrophoresis - The lyophilized fractions (each of approximately 12 µg) were subjected to isoelectric focusing for 18,000 V/h with pH 3-10 ampholytes using the Millipore Investigator two-dimensional electrophoresis system (Millipore). Following this, the first-dimension gel was extruded and equilibrated in SDS buffer for 2 min before being loaded onto the second dimension 12.5% SDS-polyacrylamide gel. The gel was fixed, dried and ³²P-labeled polypeptides were located by autoradiography by using intensifying screens at -80°C. For measurement of the pH profile, carbamylated protein standards (Pharmacia LKB Biotechnology Inc.) were co-run on duplicate gels and related to proteins of known pI on previously calibrated samples. Molecular weight marker proteins from Sigma were detected by Coomassie Blue staining and marked on the autoradiogram. ³²P-Labeled 27 hsp complex prepared from human fibroblasts heat shocked at 43°C for 30 min was also used as a marker.
Quantitative Determination of Protein Phosphorylation - The amount of protein phosphorylation on autoradiographs derived from cytosolic membrane or antibody-precipitated preparations containing equal amounts of protein were analyzed by computerized densitometry using a Visage 2000 Image analysis system (BioImage Products, Ann Arbor, MI, US).
The ³²P-labeled protein spots are resolved and detected by autoradiography of the high definition two-dimensional gel electrophoresis of cytosolic extracts prepared from ³²P-labeled human fibroblasts. The radioactive spots (each representing one or more phosphoproteins) are analyzed by computerized densitometry. Each spot is arbitrarily assigned a number. […]

CC1CNCCN1S(=O)(=O)c1cccc2cnccc12.Cl.Cl (stereo not shown) [H7, 1-(5-isoquinolinylsulfonyl)-2-methylpiperazine dihydrochloride]
block of induction of Egr-1 message by okadaic acid or TPA (in words) (Egr-1 mRNA [1]; 25 µM, 15 min pre-treatment): effectively blocked
block of induction of Egr-1 message by okadaic acid or TPA (in words) (Egr-1 mRNA [2]; 25 µM, 15 min pre-treatment): effectively blocked

COC[C@@H]([C@H](O)[C@H](O)C(=O)NCC[C@H](C)c1nc(/C=C/C[C@@H]2O[C@]3(C[C@@H](O)[C@@H]2C)O[C@H]([C@H](C[C@H](O)[C@H](C)[C@H](O)[C@H](C)/C=C(C)/C(C)=C/C=C/C(C)=C\C#N)OC)[C@H](OP(=O)(O)O)C3(C)C)co1)N(C)C [calyculin A]
concentration up to which induction of Egr-1 mRNA increased dose-dependently (Egr-1 mRNA [1]; 1 h): up to 25 nM
concentration inducing an equivalent fold increase in Egr-1 mRNA (Egr-1 mRNA [1]; 1 h, calyculin A compared with okadaic acid): 10 nM
induction of immediate-early genes c-fos and c-jun (in words) (c-fos and c-jun): also induced
amount of 35S-methionine labeled Egr-1 protein relative to control cells (Egr-1 protein): 4 to 5 fold

C[C@@H]1C[C@@H]([C@H](O)CC2CC(=O)NC(=O)C2)C(=O)[C@@H](C)C1 [cycloheximide]
effect on the induction of Egr-1 mRNA by okadaic acid (in words) (Egr-1 mRNA [2]): enhanced
induction of Egr-1 mRNA by the substance alone (in words) (Egr-1 mRNA [2]): induced Egr-1 mRNA

COc1ccc(C[C@H](N)C(=O)N[C@H]2[C@@H](O)[C@H](n3cnc4c(N(C)C)ncnc43)O[C@@H]2CO)cc1 [puromycin]
effect on the induction of Egr-1 mRNA by okadaic acid (in words) (Egr-1 mRNA [2]; 0.5 µM okadaic acid, protein synthesis inhibitor): superinduces

O-tetradecanoylphorbol 13-acetate [TPA]
pattern of early protein phosphorylation changes (in words) (human fibroblasts): quite different from that produced by okadaic acid or TNF
